Measured values: patent US9358244B2, “Solid dosage forms of oleyl phosphocholine” (Oblita Therapeutics BVBA, priority 2010, dated 2016)
In brackets after ≈: the same amount, converted by molar mass.

Tests used:
[1] = tested on: Leishmania infantum (MHOM/MA (BE)/67) amastigotes; assay: Curative efficacy against Leishmania infantum in the hamster model, oral 5 days; format: in vivo; conditions: for Bone marrow % red / Liver % red / Spleen % red: reduction vs VIC; for Bone marrow Mean ± SE of amastigotes per nucleus / Liver Mean ± SE of LDU / Spleen Mean ± SE of LDU: 10 days after last treatment
Procedure: Golden hamsters (female, 75 g) were allocated randomly to 7 groups with 8 animals per group. • G1: vehicle infected control (VIC): 200 μl blank vehicle orally 5 days • G2: MIL-PBS: 5×40 mg/kg (=98.1 μmol/kg) orally for 5 days • G3: MIL-PBS: 5×20 mg/kg (=49.1 μmol/kg) orally for 5 days • G4: OlPC-PBS: 5×42.5 mg/kg (=98.1 μmol/kg) orally for 5 days • G5: OlPC-PBS: 5×21.2 mg/kg (=49.1 μmol/kg) orally for 5 days • G6: OlPC-liposomes: 5×2.4 ml/kg (=98.1 μmol/kg) orally for 5 days • G7: OlPC-liposomes: 5×1.2 ml/kg (=49.1 μmol/kg) orally for 5 days Drinking water and food were available ad libitum throughout the experiment. […] Artificial Infection
Leishmania infantum (MHOM/MA (BE)/67) amastigotes were obtained from the spleen of heavily infected donor hamsters. The total parasite burden was determined on Giemsa-stained smears. Amastigotes in the spleen homogenate were concentrated using two centrifugation steps (low speed (300 rpm) with collection of the supernatant−high speed (4200 rpm) with collection of the pellet). The parasite burdens in the spleen were estimated using the Stauber technique and the amastigote suspension was diluted to prepare the infection inocula for intracardial infection containing 2×10^7 amastigotes/100 μl. At 21 days post infection (=start of treatment), the levels infection were checked in 4 randomly chosen animals by making a smear from a liver biopsy for determination of the parasite burden (cfr. infra).
• Miltefosine was formulated at 20 mg/ml and 10 mg/ml in PBS and stored at room temperature in the dark. A clear transparent solution was obtained. • OlPC-PBS was formulated at 21.25 mg/ml and 10.63 mg/ml in PBS and stored at room temperature in the dark. A clear transparent solution was obtained. • OlPC-liposome formulation was prepared at 18 mg/ml (dosed at 2.4 ml/kg=120 μl/50 gram). The formulation was diluted 2 times in PBS to obtain a OlPC-formulation of 9 mg/ml (dosed at 1.2 ml/kg=[…])) Treatment
Oral treatment started 21 days after infection (dpi) and was continued for 5 consecutive days. Dosing volume was 100 μl per 50 gram BW (bodyweight).
Parasite Burden: amastigote burdens in the different target organs (liver, spleen, bone-marrow) were determined 10 days after the last treatment (i.e. day 35 of the experiment). The organs of individual animals were weighed (except bone-marrow); impression smears were fixed in methanol and stained with Giemsa for microscopic evaluation of the number of amastigotes per cell by counting a minimum of 500 nuclei1. The results are expressed as Leishman Donovan Units (LDU)=mean number of amastigotes per nucleus×mg organ weight. Percentage reduction as compared to vehicle-treated infected control animals (VIC) is used as a measure for drug activity. Particularly for spleen and bone-marrow, the viability of possible residual burdens was assessed using the promastigote transformation assay.

[2] = Thermogravimetric analysis (TGA) of OlPC; format: physicochemical; conditions: with 1% of mass loss, heating rate 10° C./min
Procedure: Thermogravimetric Analysis (TGA) measures weight changes in a material as a function of temperature (or time) under a controlled atmosphere. Its principal use includes measurement of a material's thermal stability and composition. The TGA analysis was performed using a HR TGA 2950 (TA Instruments, Leatherhead, UK). Samples (±15 mg) were equilibrated at 50° C. and then heated to 500° C. at a heating rate of 10° C./min and the percentage of weight loss was recorded. The OlPC compound show thermal degradation at 159.27° C. with 1% of mass loss.

[3] = Water solubility of OlPC; format: physicochemical
Procedure: The wet granulation process for OlPC solid dosage formulation requires that OlPC is solubilised in water. OlPC as a water solubility of 0.2 g/ml, which implies that for each tablet with 50 mg of OlPC at least 250 μl of water per tablet has to be incorporated in the dry powder mixture.

[4] = Dynamic vapor sorption, OlPC hygroscopicity; format: physicochemical; conditions: 25° C.
Procedure: Active pharmaceutical ingredients (API) frequently show a propensity to interact with water molecules, leading to absorption of moisture in their bulk structure or adsorption on their surfaces. Such behaviour can critically affect many pharmaceutical properties such as purity, solubility and chemical stability, density, surface area, powder flow, compact ability and crystal form. […] Dynamic vapor sorption (DVS) analyzes determine hygroscopicity profiles using a very small sample (≈15 mg), and provide both qualitative and quantitative information on water uptake.
Water sorption/desorption isotherm of OlPC was determined gravimetrically at 25° C. (SD, 0.1° C.) using a DVS Advantage 1 with a Cahn D200 microbalance (Surface Measurement Systems, London, UK). Between 10 and 20 mg was weighed in the sample cup of the instrument, subjected to a drying step in order to bring the sample to a constant weight and subsequently exposed to increasing relative humidity (RH) (using 10% increments up to 90%). Following the sorption phase, the sample was exposed to a decreasing RH (in steps of 10% until 0% RH). Each step continued until equilibrium was reached (i.e. when the change in mass smaller than 0.002% per minute during at least 10 min) or until 6 h had passed. The mass change was recorded every minute with a resolution of ±0.1 μg.

[5] = Tolerance in treated naturally infected dogs; format: in vivo; conditions: 6 dogs, 4 mg/kg/day orally 14 days
Procedure: (§1) The dose of 4 mg/kg/day oleylphosphocholine was used to treat orally during 14 days a cohort of 6 dogs from a shelter naturally infected with L. infantum and classified as clinically sick. The dogs were assessed at the clinical (physical examination and clinic-pathological abnormalities) and parasitological levels at the beginning of the treatment (day 0) and on day 15, 30 and 90.

[6] = Tolerability in hamsters, follow up experiment; format: in vivo; conditions: hamster, oral, single administrations as high as 100 mg/kg
Procedure: (§2) In a follow up experiment, the same experimental protocol was used to compare the efficacy of oral oleyl phosphocholine (OlPC) at total doses of 25, 50 and 100 mg/kg when given as single or multiple oral administrations (5×5, 10 and 20 mg/kg, respectively).
(§3) Female hamsters (n=60) were intracardially infected with 2×10^7 Leishmania infantum (MHOM/MA (BE)/67) amastigotes on day 0. Treatment started at day+21 post infection for 5 consecutive days once daily with a total dose of […] given as single or multiple oral administrations. Amastigote burdens in the different target organs (liver, spleen, bone-marrow) were determined 10 days after the last treatment (day+35). The organs of individual animals were weighed (except bone-marrow); impression smears were fixed in methanol and stained with Giemsa for microscopic evaluation of the number of amastigotes per cell by counting a minimum of 500 nuclei. The results (FIG. 4) are expressed as Leishman Donovan Units (LDU)=mean number of amastigotes per nucleus×mg organ weight.

[7] = tested on: Leishmania infantum (MHOM/MA (BE)/67) amastigotes; assay: Follow up experiment: single versus multiple oral administrations in L. infantum infected hamsters; format: in vivo; conditions: hamster, total doses 25, 50 and 100 mg/kg oral, liver, spleen, bone marrow
Procedure: as §2, §3

[8] = tested on: L. infantum; assay: Treatment of dogs naturally infected with L. infantum, clinical score; format: in vivo; conditions: 4 mg/kg/day orally 14 days
Procedure: as §1

[9] = Compatibility of OlPC with binder in solution; format: physicochemical
Source text: The tablets produced presented high levels of friability and high disintegration time. It was observed that the presence of polyvynilpyrrolidone in solution with OlPC induces the formation of an unknown precipitated which indicates the presence of an incompatibility between the two compounds.
Hydroxypropylmethylcellulose was then selected to replace polyvynilpyrrolidone as a binder in the subsequent formulation assays.

[10] = 49.1 μmol/kg (20 mg/kg) orally for 5 days
[11] = 98.1 μmol/kg (40 mg/kg) orally for 5 days

CCCCCCCCCCCCCCCCOP(=O)([O-])OCC[N+](C)(C)C [Miltefosine]
Bone marrow % red [1, 10]: 39% | Liver % red [1, 10]: 0% | Spleen % red [1, 10]: 61% | Liver % red ([1]; 49.1 μmol/kg (20 mg/kg) orally for 5 days, listed as MIL): no reduction | Bone marrow Mean ± SE of amastigotes per nucleus ([1]; 49.1 μmol/kg orally for 5 days): 1.0 ± 0.34 amastigotes per nucleus | Liver Mean ± SE of LDU ([1]; 49.1 μmol/kg orally for 5 days): 9017 ± 1489 LDU | Spleen Mean ± SE of LDU ([1]; 49.1 μmol/kg orally for 5 days): 188 ± 44 LDU | Bone marrow % red [1, 11]: 95% | Liver % red [1, 11]: 65% | Spleen % red [1, 11]: 99.2% | Spleen % red ([1]; 98.1 μmol/kg (40 mg/kg) orally for 5 days, listed as MIL): 99% | Bone marrow Mean ± SE of amastigotes per nucleus ([1]; 98.1 μmol/kg orally for 5 days): 0.1 ± 0.014 amastigotes per nucleus | Liver Mean ± SE of LDU ([1]; 98.1 μmol/kg orally for 5 days): 2764 ± 847 LDU | Spleen Mean ± SE of LDU ([1]; 98.1 μmol/kg orally for 5 days): 3.7 ± 1.67 LDU

CCCCCCCC/C=C\CCCCCCCCOP(=O)([O-])OCC[N+](C)(C)C [OlPC, oleyl phosphocholine]
thermal degradation temperature [2]: 159.27 °C | water solubility [3]: 200 mg/mL (≈ 461 mM) | water absorbed ([4]; exposed to 90% RH): 41.67% | hygroscopicity ([4]; water sorption and desorption profiles): very hygroscopic | tolerance, side effects [5]: two of the six dogs treated experienced diarrhea during the first week post-treatment, and a third one had diarrhea and 1 episode of vomiting | tolerability / signs of toxicity [6]: well tolerated | overall parasite suppression levels, single versus multiple administrations [7]: similar | average clinical score (CS) ([8]; day 15 (day 0: 19, range 14-31)): 12 (range 7-16) | average clinical score (CS) ([8]; day 30 (day 0: 19, range 14-31)): 5 (range 1-10) | average clinical score (CS) ([8]; day 90 (range 0-5; day 0: 19)): 2 | compatibility with hydroxypropylmethylcellulose [9]: no such incompatibility was observed | compatibility with polyvinylpyrrolidone in solution ([9]; unknown precipitate formed): incompatibility
